Assay results reported in patent US20250223297A1, “NOVEL RAPAMYCIN DERIVATIVES” (Novartis AG, priority 2017, published 2025).

Tests used:
[1] = test system: S6K1 (Thr389) phosphorylation (mTORC1 activity) in FKBP12 knock-down 293T cells; assay: S6K1 (Thr389) phosphorylation ELISA in FKBP12 knock-down 293T cells; type: cell-based; conditions: 2 h, relative to DMSO
[2] = Comparative blood and brain concentrations in rats after single p.o. dose; type: in vivo; conditions: rat, single p.o. dose 3, 10, 30 mg/kg; 3 h and 24 h
Procedure: Concentrations were determined using HPLC/Mass spectrometry. […] Blood and brain tissues were collected at 3 hours (h) and 24 h following treatment to determine concentrations of the compounds.

FKBP52 = FKBP52 (Homo sapiens (Human), UniProt Q02790); assay: SPR assay, binding affinity to FKBP52; conditions: single-cycle kinetics
Procedure: (§1) SPR Assay to Determine Binding Affinity to FK506-Binding Proteins (FKBP). N-terminal avi-his6 tagged FKBP fusions to FKBP12, FKBP51 and FKBP52 were expressed in E. coli and purified using standard chromatography. Each protein was subsequently immobilized on a streptavidin chip in a Biacore 8K SPR instrument (GE Healthcare). Using single-cycle kinetics, compound titrations were flowed at 45 uL/min over each surface using 2-minute association and 30-minute dissociation phases in a buffer containing 50 mM Tris pH 7.5/150 mM NaCl/0.01% Tween 20/1 mM DTT/2% DMSO. The data was fit using low molecular weight (LMW) single-cycle kinetics. The equilibrium dissociation constants (KD) are reported. […]

[3] = test system: mTORC1 signaling (pS6 Ser240/244) in MEF TSC1−/− cells; assay: MEF TSC1-/- cell based assay for rapalog potency (pS6); design: species or system mouse; conditions: Mus musculus, 2 h, 2 h treatment, average from multiple assays
Description: Potency of mTOR inhibitors may also be determined using a MEF TSC1−/− cell-based assay. MEF TSC1−/− cells are Mouse Embryonic Fibroblasts deficient in the Tuberous sclerosis protein, TSC1, which negatively regulates mTORC1 signaling. Thus, the deficiency of TSC1 induces constitutive mTORC1 activation, resulting in phosphorylation (activation) of the downstream proteins in the mTORC1 signaling pathways. This cell-based assay is used to measure inhibition (de-phosphorylation) of the mTORC1 signaling components S6 and 4EBP1, by rapalogs or other mTOR inhibitors.
The assay is typically carried out as follows: MEF TSC1−/− cells are plated on Poly-D-lysine coated 384 well Griener clear bottom plates and incubated overnight at 37° C., 5% CO2. […] Cells are fixed with 4% paraformaldehyde for 30 min and washed 5 times with TBS-EDTA followed by immuno-staining with florescent tag labeled antibodies for pS6 and p4EBP1. Nuclei are visualized with Hoechst staining. Cells are imaged using respective florescence channels and the potency of mTOR inhibitors is defined by pS6 IC50 (nM).
Cell-based assay for rapalog potency determination. Rapalog potency was determined using MEF TSC1−/− cell based assay. MEF TSC1−/− cells are Mouse Embryonic Fibroblasts deficient in Tuberous sclerosis protein-TSC1, which negatively regulates mTORC1 signaling and thus display constitutive mTORC1 activation, resulting in phosphorylation (activation) of downstream molecules. This cell-based assay is used to measure inhibition (de-phosphorylation) of S6 and 4EBP1 by rapalogs or other mTOR inhibitors.
MEF TSC1−/− cells were plated on Poly-D-lysine coated 384 well Griener clear bottom plates and incubated overnight at 37° C., 5% CO2. […] Nuclei were visualized with Hoechst (ThermoFisher Scientific #H3570) staining. Cells were imaged (InCell 600) using respective fluorescence channels and the potency of mTOR inhibitors was defined by pS6 IC50 (nM).
In vitro potency of mTOR inhibitors was defined by pS6 IC50 (nM) in MEF TSC1−/− cells.
IC50 values are calculated as the average from multiple assays.

[4] = test system: S6K1 (Thr389) phosphorylation (mTORC1 activity) in FKBP12 knock-out 293T cells; assay: S6K1 (Thr389) phosphorylation ELISA in FKBP12 knock-out 293T cells; type: cell-based; conditions: 2 h, relative to DMSO
[5] = test system: S6K1 (Thr389) phosphorylation (mTORC1 activity) in WT 293T cells; assay: S6K1 (Thr389) phosphorylation ELISA in wild-type 293T cells; type: cell-based; conditions: 2 h, relative to DMSO
Procedure: WT, FKBP12 knock-down and FKBP12 knock-out 293T cells were plated at a density of 30,000 cells per well in poly-D-Lysine coated 96-well plates (Corning, #354461) in Dulbecco's modified Eagle's medium (ThermoFisher, #11995-065) supplemented with 10% fetal bovine serum (ThermoFisher, #16140-071). Cells were incubated at 37° C., 5% CO2 for 48 hours until they reached ˜80% confluence. […] Media supplemented with blank Dimethyl sulfoxide (DMSO) was used as a control for both compounds. Phosphorylated amounts of S6K1 (Thr389) were detected by a sandwich ELISA kit (Cell signaling, #7063C) following the manufacture's protocol.
S6K1 is a downstream target of mTORC1 and phosphorylation of its rapalog-sensitive Thr389 site is used as a functional readout of mTORC1 activity. Lee, C. H., Inoki, K. and Guan, K. L. (2007). mTOR pathway as a target in […]. Annu. Rev. Pharmacol. Toxicol. 47. 443-467. […] In FKBP12 knock-out cells. […] Such specificity of Example 2 to FKBP12 may facilitate targeting cells and tissues with relatively high levels of FKBP12 expression, while avoiding (or minimizing) side effects in the tissues where FKBP12 is weakly expressed.

FKBP12 = FKBP12 (Homo sapiens (Human), UniProt P62942); assay: SPR assay, binding affinity to FKBP12; conditions: single-cycle kinetics
Procedure: as §1

[6] = test system: mTORC1 pathway (S6 phosphorylation) in rat liver; assay: Inhibition of mTORC1 pathway in rat liver (p-S6/t-S6 immunoblot); type: in vivo
Procedure: Protein extraction and immunoblotting. For protein extraction, snap frozen tissues were lysed in MSD Lysis Buffer (MSD, Rockville, Maryland), supplemented with complete EDTA free protease inhibitor and PhosSTOP phosphatase inhibitor tablets (Roche, Manheim, Germany), and centrifuged at 13,000g for 20 min at 4° C. The resultant supernatant was used for immunoblotting. Protein was quantified with BCA protein assay (Thermo Scientific, MA). Samples were resolved on 4-20% Criterion™ TGX™ Precast Midi Protein gels (Bio-Rad, CA) and transferred onto nitrocellulose membranes (Bio-Rad, CA) using a Trans Turbo Blot system (Bio-Rad, CA). Immunoblotting was performed with antibodies to p-S6 and t-S6 from Cell Signaling Technologies (all 1:1000 in TBS-T with 5% BSA). The ‘p’ and ‘t’ prefixes signify ‘phosphorylated’ and ‘total’ forms respectively. HRP-conjugated secondary antibodies against rabbit (#7074) were from Cell Signaling Technologies, MA. […] Resultant digital images were converted into a TIFF format and quantified using ImageJ software.
The ability of Example 2 to inhibit mTORC1 pathway in vivo was determined in rats aged 4 months (FIG. 5A-5D).

Sequence of FKBP52 (Q02790 whole entry, the tested form may be a part): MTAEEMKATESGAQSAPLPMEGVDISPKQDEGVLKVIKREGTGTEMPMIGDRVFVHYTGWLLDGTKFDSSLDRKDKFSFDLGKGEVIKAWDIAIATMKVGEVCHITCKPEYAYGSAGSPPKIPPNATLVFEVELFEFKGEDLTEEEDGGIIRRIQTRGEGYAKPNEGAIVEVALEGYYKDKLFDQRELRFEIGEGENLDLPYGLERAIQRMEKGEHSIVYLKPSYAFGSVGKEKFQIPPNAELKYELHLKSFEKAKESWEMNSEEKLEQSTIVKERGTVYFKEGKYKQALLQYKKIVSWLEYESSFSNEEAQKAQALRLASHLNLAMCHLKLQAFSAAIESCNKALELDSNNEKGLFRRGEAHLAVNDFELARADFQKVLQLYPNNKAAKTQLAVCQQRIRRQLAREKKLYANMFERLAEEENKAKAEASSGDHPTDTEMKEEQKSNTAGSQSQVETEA
Sequence of FKBP12 (P62942 whole entry): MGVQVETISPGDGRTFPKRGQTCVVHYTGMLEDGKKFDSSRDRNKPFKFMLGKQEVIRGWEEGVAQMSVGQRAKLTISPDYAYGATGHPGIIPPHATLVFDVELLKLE

CO[C@@H]1C[C@H](C[C@@H](C)[C@@H]2CC[C@H](C)/C=C(\C)[C@@H](O)[C@@H](OC)C(=O)[C@H](C)C[C@H](C)/C=C/C=C/C=C(\C)[C@H](N3CCCS3(=O)=O)C[C@@H]3CC[C@@H](C)[C@@](O)(O3)C(=O)C(=O)N3CCCC[C@H]3C(=O)O2)CC[C@H]1O [Example 2, (R)-C16-(1,1-dioxidoisothiazolidin-2-yl)-C32-deoxo-rapamycin]
maximum inhibition of S6K1 (Thr389) [1]: ~40% | blood concentrations compared with RAD001 [2]: higher | brain concentrations compared with RAD001 [2]: higher | Kd (FKBP52): > 10000 nM | IC50 [3]: 0.274 nM | inhibition of S6K1 (Thr389) phosphorylation [4]: failed to inhibit | inhibition of S6K1 (Thr389) [5]: ~80% | Kd (FKBP12): 16 nM | S6 inactivation in rat liver, 24 h ([6]; 24 h following dosing with 10 (trend p=0.06) and 30 mg/kg): remained inactivated | de-phosphorylation (inactivation) of S6 in rat liver, 3 h ([6]; single p.o. dose 3, 10 and 30 mg/kg, three hours following dosing, vs vehicle): significant de-phosphorylation
